Test results: ChEMBL document CHEMBL5214944, “Preparation of radiolabeled erlotinib analogues and analysis of the effect of linkers” (Bioorg Med Chem Lett, 2022)

Key:
[1] = Retention time of the compound by RP-HPLC analysis; type: physicochemical
A-431 = assay: Cytotoxicity against human A-431 cells assessed as inhibition of cell growth at 100 uM incubated for 24 hrs by MTT assay; type: toxicity, cell-based; details: a-431, 24 h
[2] = Cytotoxicity against human A-431 cells assessed as inhibition of cell growth at 100 uM incubated for 72 hrs by MTT assay; type: toxicity, cell-based
[3] = Biodistribution in Swiss mouse assessed as accumulation at radioactivity in liver at 3 MBq, iv and measured 1 hr post injection by gamma counter method; type: ADME, organism-based; details: in vivo
[4] = Octanol/water partition coefficient, logP of compound by gamma counter analysis; type: physicochemical
[5] = Cytotoxicity against human A-431 cells assessed as inhibition of cell growth at 50 uM incubated for 24 hrs by MTT assay; type: toxicity, cell-based; details: read-out: Activity

Structure (SMILES) | Retention_time [1] | Activity (A-431) | inhibition at 72 h, 100 µM [2] | also measured
COCCOc1cc2ncnc(Nc3cccc(-c4cn(CCOCCOCCOCCNC(=S)Nc5ccc(CC6CN(CC(=O)O)CCN(CC(=O)O)CCN(CC(=O)O)CCN6CC(=O)O)cc5)nn4)c3)c2cc1OCCOC (stereo not drawn) | 17.2 min | Toxic | 92.6% | –
C#Cc1cccc(Nc2ncnc3cc(OCCOC)c(OCCO[11CH3])cc23)c1 | – | – | – | Drug uptake [3]: 10.55 % ID/g; logP [4]: 3.2
COCCOc1cc2ncnc(Nc3cccc(-c4cn(CCOCCOCCOCCN)nn4)c3)c2cc1OCCOC | 15.9 min | – | – | –
COCCOc1cc2ncnc(Nc3cccc(-c4cn(CCCN)nn4)c3)c2cc1OCCOC | 13.5 min | – | – | –
COCCOc1cc2ncnc(Nc3cccc(-c4cn(CC[18F])nn4)c3)c2cc1OCCOC | – | – | – | Drug uptake [3]: 17.1 % ID/g; logP [4]: 2.36
C#Cc1cccc(Nc2ncnc3cc(OCCOC)c(OCCOC)cc23)c1 [ERLOTINIB] | – | – | 92.7% | inhibition at 24 h, 50 µM [5]: 29.8%

Now from value to compound, other results behind:

Retention_time [1] | Structure (SMILES) | Activity (A-431) | inhibition at 72 h, 100 µM [2] | also measured
17.4 min | COCCOc1cc2ncnc(Nc3cccc(-c4cn(CCOCCOCCOCCOCCOCCOCCN)nn4)c3)c2cc1OCCOC | – | – | –
18.5 min | COCCOc1cc2ncnc(Nc3cccc(-c4cn(CCOCCOCCOCCOCCOCCOCCNC(=S)Nc5ccc(CC6CN(CC(=O)O)CCN(CC(=O)O)CCN(CC(=O)O)CCN6CC(=O)O)cc5)nn4)c3)c2cc1OCCOC (stereo not drawn) | Toxic | 90.9% | –
15.9 min | COCCOc1cc2ncnc(Nc3cccc(-c4cn(CCCNC(=S)Nc5ccc(CC6CN(CC(=O)O)CCN(CC(=O)O)CCN(CC(=O)O)CCN6CC(=O)O)cc5)nn4)c3)c2cc1OCCOC (stereo not drawn) | Non-Toxic | 91.3% | –
